Measurements as given in patent publication US8476298B2 (Exelixis, Inc., priority 2003, dated 2013).

Tests used:
[1] = biological target: T1, c-Met (baculovirus expressed human c-Met kinase domain P948-S1343) (Homo sapiens, UniProt P08581); test: c-Met Luciferase-Coupled Chemiluminescent Kinase assay (LCCA); assay type: biochemical;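 also: kinase activity read as percent ATP left after reaction, by luciferase-luciferin chemiluminescence, with 1 µM ATP and 1 µM poly-EY substrate, 2 h at ambient temperature, 10-point dose-response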
T1 construct: human c-Met kinase domain P948-S1343; host or cells: baculovirus expression
Protocol: Kinase activity and compound inhibition are investigated using one or more of the three assay formats described below. The ATP concentrations for each assay are selected to be close to the Michaelis-Menten constant (KM) for each individual kinase. Dose-response experiments are performed at 10 different inhibitor concentrations in a 384-well plate format. […] Typically H is close to unity. c-Met Assay
c-Met biochemical activity was assessed using a Luciferase-Coupled Chemiluminescent Kinase assay (LCCA) format as described above. Again, kinase activity was measured as the percent ATP remaining following the kinase reaction. Remaining ATP was detected by luciferase-luciferin-coupled chemiluminescence. Specifically, the reaction was initiated by mixing test compounds, 1 μM ATP, 1 μM poly-EY and 10 nM c-Met (baculovirus expressed human c-Met kinase domain P948-S1343) in a 20 uL assay buffer (20 mM Tris-HCL pH7.5, 10 mM MgCl2, 0.02% Triton X-100, 100 mM DTT, 2 mM MnCu2). The mixture is incubated at ambient temperature for 2 hours after which 20 uL luciferase-luciferin mix is added and the chemiluminescent signal read using a Wallac Victor^2 reader.

[2] = biological target: T2, KDR (baculovirus expressed human KDR kinase domain D807-V1356) (Homo sapiens, UniProt P35968); test: biochemical;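 also: Luciferase-coupled chemiluminescent kinase assay, activity read as percent ATP left after 4 h reaction at ambient temperature, ATP near KM, 10-point dose-response in 384-well plates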
T2 construct: human KDR kinase domain D807-V1356; host or cells: baculovirus expression
T2 sequence (P35968 807-1356): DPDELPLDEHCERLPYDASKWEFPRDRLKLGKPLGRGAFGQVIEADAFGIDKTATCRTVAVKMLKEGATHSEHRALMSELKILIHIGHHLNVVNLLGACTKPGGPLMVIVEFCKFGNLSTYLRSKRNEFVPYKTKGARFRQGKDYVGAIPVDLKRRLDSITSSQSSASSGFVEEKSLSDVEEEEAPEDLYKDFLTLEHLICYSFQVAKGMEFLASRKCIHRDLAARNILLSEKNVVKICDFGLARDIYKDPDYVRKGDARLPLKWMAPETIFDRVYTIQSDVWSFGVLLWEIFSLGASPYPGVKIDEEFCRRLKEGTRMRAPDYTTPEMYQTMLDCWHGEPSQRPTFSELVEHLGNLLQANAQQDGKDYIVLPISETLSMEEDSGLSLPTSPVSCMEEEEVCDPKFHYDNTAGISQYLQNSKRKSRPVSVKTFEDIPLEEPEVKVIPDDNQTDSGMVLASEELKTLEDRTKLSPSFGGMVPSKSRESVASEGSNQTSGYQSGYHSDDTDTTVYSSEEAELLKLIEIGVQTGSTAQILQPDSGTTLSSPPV

T1 sequence (P08581 1011-1343 limits assumed): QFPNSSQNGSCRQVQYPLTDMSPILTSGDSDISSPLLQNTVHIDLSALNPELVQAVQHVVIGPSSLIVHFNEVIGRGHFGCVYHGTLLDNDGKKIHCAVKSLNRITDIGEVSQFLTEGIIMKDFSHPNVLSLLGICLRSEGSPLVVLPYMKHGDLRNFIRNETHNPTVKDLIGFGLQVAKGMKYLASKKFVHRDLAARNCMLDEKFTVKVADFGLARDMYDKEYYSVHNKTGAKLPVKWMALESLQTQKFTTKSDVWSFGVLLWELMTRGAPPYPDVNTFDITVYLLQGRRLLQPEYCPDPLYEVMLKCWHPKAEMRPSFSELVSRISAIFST

Compound | IC50 [1] | IC50 [2]
COc1cc2nccc(Oc3ccc(N4CCN(C(=O)Cc5ccccc5)C4=O)cc3F)c2cc1OC [Entry 6] | 50 to 500 nM | –
COc1cc2nccc(Oc3ccc(S(=O)(=O)N(C)CCCc4ccccc4)cc3F)c2cc1OC [Entry 25] | 500 to 5000 nM | –
COc1cc2nccc(Oc3cc4sc(NC(=O)CCc5ccccc5)nc4cc3F)c2cc1OC [Entry 53] | 500 to 5000 nM | –
COc1cc2nccc(Oc3ccc(NC(=O)C(=O)N[C@H]4CCc5ccccc5C4)cc3F)c2cc1OC [Entry 62] | 500 to 5000 nM | –
COc1cc2nccc(Oc3ccc(N(Cc4ccccc4)S(=O)(=O)NCc4ccccc4)cc3F)c2cc1OC [Entry 66] | 500 to 5000 nM | –
COc1cc2nccc(Oc3ncc(NC(=O)C(=O)NCCc4ccccc4)cc3Cl)c2cc1OC [Entry 69] | 500 to 5000 nM | –
COc1cc2nccc(Oc3ncc(NC(=O)CC(=O)Cc4ccccc4)cc3Cl)c2cc1OC [Entry 79] | 500 to 5000 nM | –
COc1cc2nccc(Oc3cc4sc(NCCOc5ccccc5)nc4cc3F)c2cc1OC [Entry 81] | 50 to 500 nM | –
COc1cc2nccc(Oc3cc4sc(N(C)CCc5ccccc5)nc4cc3F)c2cc1OC [Entry 83] | 500 to 5000 nM | –
COc1cc2nccc(Oc3cc4sc(NCCN5CCCC5)nc4cc3F)c2cc1OC [Entry 84] | 500 to 5000 nM | –
COc1cc2nccc(Oc3cc4sc(NCc5cccc(C(F)(F)F)c5)nc4cc3F)c2cc1OC [Entry 85] | 500 to 5000 nM | –
COc1cc2nccc(Oc3cc4sc(NCCc5cccc(C(F)(F)F)c5)nc4cc3F)c2cc1OC [Entry 86] | 500 to 5000 nM | –
COc1cc2nccc(Oc3ncc(NC(=O)CC(=O)Nc4cccc(C(F)(F)F)c4)cc3Cl)c2cc1OC [Entry 87] | 500 to 5000 nM | –
COc1cc2nccc(Oc3ncc(NC(=O)CN(Cc4ccccc4)C(=O)OC(C)(C)C)cc3Cl)c2cc1OC [Entry 92] | 500 to 5000 nM | –
COc1cc2nccc(Oc3ncc(NC(=O)CNCc4ccccc4)cc3Cl)c2cc1OC [Entry 93] | 500 to 5000 nM | –
COc1cc2nccc(Oc3ccc(NC(=O)CN(C)CCc4cccc(C(F)(F)F)c4)cc3F)c2cc1OC [Entry 100] | 500 to 5000 nM | –
COc1cc2nccc(Oc3ncc(NC(=O)CC(=O)Nc4ccc(Cl)cc4)cc3Cl)c2cc1OC [Entry 107] | 50 to 500 nM | –
CO/N=C(\C)C(=O)Nc1ccc(Oc2ccnc3cc(OC)c(OC)cc23)cc1 [Example 108, (2E)-N-(4-{[6,7-bis(methyloxy)quinolin-4-yl]oxy}phenyl)-2-[(methyloxy)imino] propanamide] | 50 to 500 nM | 50 to 500 nM
CCO/N=C(\C)C(=O)Nc1ccc(Oc2ccnc3cc(OC)c(OC)cc23)cc1 [Example 109, (2E)-N-(4-{[6,7-bis(methyloxy)quinolin-4-yl]oxy}phenyl)-2-[(ethyloxy)imino] propanamide] | 50 to 500 nM | < 50 nM
COc1cc2nccc(Oc3ccc(NC(=O)/C(C)=N/OCc4ccccc4)cc3)c2cc1OC [Example 110, (2E)-N-(4-{[6,7-bis(methyloxy)quinolin-4-yl]oxy}phenyl)-2-{[(phenylmethyl)oxy]imino} propanamide] | 50 to 500 nM | 50 to 500 nM
COc1cc2nccc(Oc3ccc(NC(=O)[C@@H]4CCCN4Cc4ccccc4)cc3)c2cc1OC [Example 111, N-(4-{[6,7-bis(methyloxy)quinolin-4-yl]oxy}phenyl)-1-(phenylmethyl)prolinamide] | 500 to 5000 nM | 500 to 5000 nM
COc1cc2nccc(Oc3ccc(N4CC(Cc5ccccc5)NC4=O)cc3)c2cc1OC (stereo not drawn) [Example 113, 1-(4-{[6,7-bis(methyloxy)quinolin-4-yl]oxy}phenyl)-4-(phenylmethyl)imidazolidin-2-one] | 500 to 5000 nM | 500 to 5000 nM
COc1cc2nccc(Oc3ccc(NC4=NC(Cc5ccccc5)CO4)cc3)c2cc1OC (stereo not drawn) [Example 114, N-(4-{[6,7-bis(methyloxy)quinolin-4-yl]oxy}phenyl)-4-(phenylmethyl)-4,5-dihydro-1,3-oxazol-2-amine] | 500 to 5000 nM | 50 to 500 nM
N-{3-fluoro-4-[(7-(methyloxy)-6- {[(1-methylpiperidin-4- yl)methyl]oxy}quinazolin-4- yl)oxy]phenyl}-N′-(4- fluorophenyl)cyclopropane-1,1- dicarboxamide [Entry 31] | 500 to 5000 nM | –
